Molecules are shown by their SMILES.

For this experiment, the target named is ROCK2 (Homo sapiens (Human), UniProt O75116). Nature of the experiment: ROCK2 kinase inhibition assay (LABCHIP peptide phosphorylation). The format is biochemical. The conditions noted are these: 5 μM ATP, 1.5 μM peptide substrate. Here is the method: The effectiveness of compounds of the present invention as ROCK inhibitors can be determined in a 30 μL, assay containing 20 mM HEPES, pH 7.5, 20 mM MgCl2, 0.015% Brij-35, 4 mM DTT, 5 μM ATP and 1.5 μM peptide substrate (FITC-AHA-AKRRRLSSLRA-OH). Compounds were dissolved in DMSO so that the final concentration of DMSO was <2%, and the reaction was initiated with Rho kinase variants. After incubation, the reaction was terminated by the addition of EDTA and the phosphorylated and non-phosphorylated peptides separated using a LABCHIP® 3000 Reader (Caliper Life Sciences). […] Compounds were tested in dose-response format, and the inhibition of kinase activity was calculated at each concentration of compound. The inhibition data were fit using a curve-fitting program to determine the IC50; i.e., the concentration of compound required to inhibit 50% of kinase activity.
Sequence of ROCK2 (O75116 whole entry, species assumed): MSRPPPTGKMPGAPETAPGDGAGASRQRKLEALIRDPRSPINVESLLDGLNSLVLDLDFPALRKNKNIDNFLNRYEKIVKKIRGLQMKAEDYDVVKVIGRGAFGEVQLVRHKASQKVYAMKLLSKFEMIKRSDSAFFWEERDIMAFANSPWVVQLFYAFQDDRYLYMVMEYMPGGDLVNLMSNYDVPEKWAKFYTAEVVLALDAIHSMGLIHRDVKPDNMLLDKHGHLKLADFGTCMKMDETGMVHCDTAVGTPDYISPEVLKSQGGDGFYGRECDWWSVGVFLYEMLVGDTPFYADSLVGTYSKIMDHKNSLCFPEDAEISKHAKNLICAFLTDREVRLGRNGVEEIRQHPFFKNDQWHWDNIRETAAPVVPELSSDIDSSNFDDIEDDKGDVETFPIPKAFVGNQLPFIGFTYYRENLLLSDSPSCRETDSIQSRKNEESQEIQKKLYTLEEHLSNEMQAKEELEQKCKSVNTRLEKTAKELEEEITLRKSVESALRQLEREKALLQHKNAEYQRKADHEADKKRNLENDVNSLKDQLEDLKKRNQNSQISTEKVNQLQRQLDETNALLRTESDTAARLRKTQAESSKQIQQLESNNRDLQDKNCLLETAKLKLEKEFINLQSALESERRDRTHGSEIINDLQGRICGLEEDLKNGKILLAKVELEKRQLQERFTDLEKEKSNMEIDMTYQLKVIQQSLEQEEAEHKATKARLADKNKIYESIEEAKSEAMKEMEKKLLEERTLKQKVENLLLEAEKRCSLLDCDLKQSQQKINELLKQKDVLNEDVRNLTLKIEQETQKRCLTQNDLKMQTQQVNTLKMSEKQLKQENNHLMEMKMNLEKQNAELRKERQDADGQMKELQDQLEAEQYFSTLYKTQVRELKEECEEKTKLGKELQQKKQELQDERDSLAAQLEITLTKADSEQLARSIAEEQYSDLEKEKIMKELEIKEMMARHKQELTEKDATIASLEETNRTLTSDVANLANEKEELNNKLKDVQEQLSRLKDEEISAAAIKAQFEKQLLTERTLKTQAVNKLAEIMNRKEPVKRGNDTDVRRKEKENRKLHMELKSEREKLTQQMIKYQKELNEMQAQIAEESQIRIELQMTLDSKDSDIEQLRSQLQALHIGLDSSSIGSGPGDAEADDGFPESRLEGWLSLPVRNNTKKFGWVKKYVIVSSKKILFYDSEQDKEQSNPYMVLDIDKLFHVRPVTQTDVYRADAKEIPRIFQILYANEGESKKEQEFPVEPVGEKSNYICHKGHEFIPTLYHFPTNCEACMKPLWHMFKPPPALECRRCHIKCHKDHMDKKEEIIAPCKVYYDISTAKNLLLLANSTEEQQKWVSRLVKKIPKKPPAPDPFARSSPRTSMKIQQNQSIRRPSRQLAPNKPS
Representative Examples were tested in the ROCK2 assay described above and found having ROCK2 inhibitory activity. The ranges of the ROCK2 IC50 values are as follows: ROCK2 IC50: ++++(<10 nM)+++(10-100 nM)++(100-500 nM)+(500-2000 nM)
Compound `Cc1c(F)cccc1NC1CCN(c2ccc3c(n2)OCc2n[nH]cc2-3)C1=O` (stereo not shown) [Example 24, 1-(2,4-dihydropyrazolo[4′,3′:4,5]pyrano[2,3-b]pyridin-7-yl)-3-((3-fluoro-2-methylphenyl)amino)pyrrolidin-2-one] had a half-inhibitory concentration (IC50) of 100 to 500 nM.

Regarding `COc1cccc(CNC(=O)Nc2ccc3c(n2)OCc2n[nH]cc2-3)c1` [Example 5, 1-(2,4-dihydropyrazolo[4′,3′:4,5]pyrano[2,3-b]pyridin-7-yl)-3-(3-methoxybenzyl)urea], the IC50 lay in the range of 10 to 100 nM.

Regarding `COc1cccc(N[C@H]2CCN(c3ccc4c(c3)CCc3n[nH]cc3-4)C2=O)c1` [Example 3, (S)-1-(4,5-dihydro-21-benzo[e]indazol-7-yl)-3-((3-methoxyphenyl)amino)pyrolidin-2-one], the IC50 is less than 10 nM.

Regarding `COc1cccc(CN2CCN(c3ccc4c(n3)OCc3n[nH]cc3-4)C2=O)c1` [Example 15, 1-(2,4-dihydropyrazolo[4′,3′:4,5]pyrano[2,3-b]pyridin-7-yl)-3-(3-methoxybenzyl)imidazolidin-2-one], the concentration for half-maximal inhibition (IC50) is less than 10 nM.

`O=C1N(c2ccc3c(c2)CCc2n[nH]cc2-3)CCC12Cc1ccccc1N2` (single isomer, unassigned) [Example 16, 1′-(4,5-dihydro-2H-benzo[e]indazol-7-yl)spiro[indoline-2,3′-pyrrolidin]-2′-one]: the IC50 lay within 10 to 100 nM.

Compound `O=C1C(Nc2cccc(-c3cnco3)c2)CCN1c1ccc2c(n1)OCc1n[nH]cc1-2` (racemic) [Example 35, 1-(2,4-dihydropyrazolo[4′,3′:4,5]pyrano[2,3-b]pyridin-7-yl)-3-((3-(oxazol-5-yl)phenyl)amino)pyrrolidin-2-one] yielded a half-inhibitory concentration (IC50) of 500 to 2000 nM.

Compound `COc1cccc(NC2CCN(c3ccc4c(c3)OCc3n[nH]cc3-4)C2=O)c1` (single isomer, unassigned) [Example 17, 1-(2,4-dihydrochromeno[3,4-c]pyrazol-7-yl)-3-((3-methoxyphenyl)amino)pyrrolidin-2-one] had an IC50 of 10 to 100 nM.

On to `O=C1N(c2ccc3c(c2)CCc2n[nH]cc2-3)CCC12Cc1ccccc1N2` (racemic) [Example 1, (rac)-1′-(4,5-dihydro-2H-benzo[e]indazol-7-yl)spiro[indoline-2,3′-pyrrolidin]-2′-one], for which the IC50 was less than 10 nM.

As to `COc1cccc(NC2CCN(c3ccc4c(c3)OCc3n[nH]cc3-4)C2=O)c1` (single isomer, unassigned) [Example 10, 1-(2,4-dihydrochromeno[3,4-c]pyrazol-7-yl)-3-((3-methoxyphenyl)amino)pyrrolidin-2-one], the IC50 is less than 10 nM.

With `COc1cccc(CN2CCN(c3ccc4c(n3)OCc3n[nH]cc3-4)C2=O)c1F` [Example 27, 1-(2,4-dihydropyrazolo[4′,3′:4,5]pyrano[2,3-b]pyridin-7-yl)-3-(2-fluoro-3-methoxybenzyl)imidazolidin-2-one], the half-inhibitory concentration (IC50) fell in the range of 100 to 500 nM.

For `Cc1cc(F)ccc1CN1CCN(c2ccc3c(n2)OCc2n[nH]cc2-3)C1=O` [Example 28, 1-(2,4-dihydropyrazolo[4′,3′:4,5]pyrano[2,3-b]pyridin-7-yl)-3-(4-fluoro-2-methylbenzyl)imidazolidin-2-one], the IC50 fell in the range of 100 to 500 nM.

The compound `O=C1N(c2ccc3c(c2)CCc2n[nH]cc2-3)CCC12Cc1ccccc1N2` (single isomer, unassigned) [Example 6, 1′-(4,5-dihydro-2H-benzo[e]indazol-7-yl)spiro[indoline-2,3′-pyrrolidin]-2′-one] showed an IC50 of less than 10 nM.

For the compound `Cc1c(F)cccc1CN1CCN(c2ccc3c(n2)OCc2n[nH]cc2-3)C1=O` [Example 22, 1-(2,4-dihydropyrazolo[4′,3′:4,5]pyrano[2,3-b]pyridin-7-yl)-3-(3-fluoro-2-methylbenzyl)imidazolidin-2-one], the IC50 was in the range of 10 to 100 nM.

In turn, `Cc1ccc(F)c(CN2CCN(c3ccc4c(n3)OCc3n[nH]cc3-4)C2=O)c1` [Example 20, 1-(2,4-dihydropyrazolo[4′,3′:4,5]pyrano[2,3-b]pyridin-7-yl)-3-(2-fluoro-5-methylbenzyl)imidazolidin-2-one] displayed an IC50 of 10 to 100 nM.

Compound `O=C1N(Cc2cccc(F)c2)CCN1c1ccc2c(n1)OCc1n[nH]cc1-2` [Example 25, 1-(2,4-dihydropyrazolo[4′,3′:4,5]pyrano[2,3-b]pyridin-7-yl)-3-(3-fluorobenzyl)imidazolidin-2-one] returned an IC50 of 100 to 500 nM.

In turn, `CC(C)(C)c1cccc(CN2CCN(c3ccc4c(n3)OCc3n[nH]cc3-4)C2=O)c1` [Example 31, 1-(3-(tert-butyl)benzyl)-3-(2,4-dihydropyrazolo[4′,3′:4,5]pyrano[2,3-b]pyridin-7-yl)imidazolidin-2-one] displayed an IC50 of 500 to 2000 nM.

In turn, `COc1cc(F)cc(NC2CCN(c3ccc4c(n3)OCc3n[nH]cc3-4)C2=O)c1` (racemic) [Example 12, 1-(2,4-dihydropyrazolo[4′,3′:4,5]pyrano[2,3-b]pyridin-7-yl)-3-((3-fluoro-5-methoxyphenyl)amino)pyrrolidin-2-one] showed an IC50 of 10 to 100 nM.

Compound `O=C1N(Cc2ccc(F)c(F)c2)CCN1c1ccc2c(n1)OCc1n[nH]cc1-2` [Example 29, 1-(3,4-difluorobenzyl)-3-(2,4-dihydropyrazolo[4′,3′:4,5]pyrano[2,3-b]pyridin-7-yl)imidazolidin-2-one] yielded an IC50 of 100 to 500 nM.

For `N#Cc1cccc(NC2CCN(c3ccc4c(n3)OCc3n[nH]cc3-4)C2=O)c1` (racemic) [Example 34, 3-((1-(2,4-dihydropyrazolo[4′,3′:4,5]pyrano[2,3-b]pyridin-7-yl)-2-oxopyrrolidin-3-yl)amino)benzonitrile], the half-inhibitory concentration (IC50) was in the range of 500 to 2000 nM.

For the compound `COc1cccc(CN2CCN(c3ccc4c(c3)OCc3n[nH]cc3-4)C2=O)c1` [Example 14, 1-(2,4-dihydrochromeno[3,4-c]pyrazol-7-yl)-3-(3-methoxybenzyl)imidazolidin-2-one], the IC50 is less than 10 nM.

As to `COc1cccc(CN2CCN(c3ccc4c(c3)CCc3n[nH]cc3-4)C2=O)c1` [Example 2, 1-(4,5-dihydro-2H-benzo[e]indazol-7-yl)-3-(3-methoxybenzyl)imidazolidin-2-one], the IC50 is less than 10 nM.

As to `O=C1C(Nc2ccc3ncsc3c2)CCN1c1ccc2c(n1)OCc1n[nH]cc1-2` (racemic) [Example 32, 3-(benzo[d]thiazol-6-ylamino)-1-(2,4-dihydropyrazolo[4′,3′:4,5]pyrano[2,3-b]pyridin-7-yl)pyrrolidin-2-one], the 50% inhibitory concentration (IC50) was in the range of 500 to 2000 nM.

For `COc1cccc(CN2CCN(c3ccc4c(c3)CCc3n[nH]c(C)c3-4)C2=O)c1` [Example 19, 1-(3-methoxybenzyl)-3-(1-methyl-4,5-dihydro-2H-benzo[e]indazol-7-yl)imidazolidin-2-one], the IC50 lay in the range of 10 to 100 nM.

In the case of `COc1cccc([C@@H](C)N2CCN(c3ccc4c(c3)CCc3n[nH]cc3-4)C2=O)c1` [Example 7, (R)-1-(4,5-dihydro-2H-benzo[e]indazol-7-yl)-3-(1-(3-methoxyphenyl)ethyl)imidazolidin-2-one], the 50% inhibitory concentration (IC50) is less than 10 nM.

Consider `COc1cccc(CN2CCN(c3ccc4c(n3)CCc3n[nH]cc3-4)C2=O)c1` [Example 8, 1-(4,5-dihydro-2H-pyrazolo[4,3-f]quinolin-7-yl)-3-(3-methoxybenzyl)imidazolidin-2-one], for which the IC50 is less than 10 nM.

A word on the IC50: it is the concentration that inhibits the measured activity by half. A low value points to inhibition by little substance.

Values taken from patent US10654860B2, “Tricyclic rho kinase inhibitors” (BRISTOL-MYERS SQUIBB COMPANY, priority 2016, dated 2020).
